Data published in patent US20220145316A1, “CANCER IMMUNOTHERAPY” (priority 2019, published 2022).
pIC50: −log10 of the molar value. *1 amine or outer side, *2 acyl side, *3 side chain or, on linkers, in order; H or OH if unused. Where a SMILES comes first, the peptide text is derived from it. [ ]: non-standard residue; d: D form. The star is where a group is joined. Dolaproine = CO[C@@H]([C@@H]1CCCN1)[C@@H](C)C(=O)O; Hexanoyl(6-maleimido) = O=C1C=CC(=O)N1CCCCCC(=O)*; Dil = CC[C@H](C)[C@H](NC)[C@@H](CC(=O)O)OC; PABC = O=C(OCc1ccc(N[*:1])cc1)[*:2]; X1 = C[C@@H](N*)[C@@H](O)c1ccccc1; Cit = NC(=O)NCCC[C@H](N)C(=O)O; NMeV = CN[C@H](C(=O)O)C(C)C

What was measured:
[1] = after a single administration; cited from earlier work
[2] = system: Raji-luc B lymphoma cells; assay: Drug delivery study in Raji B cell lymphoma model (survival, bioluminescence, kidney histology); assay type: in vivo, NSG mice
Protocol: Drug delivery study and histology: NSG male mice (7 weeks) were inoculated with 1×10^6 Raji-luc cells intravenously. […] For the first study, dosing started on day 3 and drugs/drug delivery system were injected i.p. every 4 days for a total of 6 injections. For the second study, dosing started on day 11 and drugs/drug delivery system were injected i.p. every 4 days for a total of 3 injections. For both studies, weekly bioluminescence imaging using the IVIS Spectrum was used to monitor lymphoma progression. […] Tissues were harvested for histology using H&E staining to show tumor burden or lack thereof.
Male NSG mice were injected intravenously with luciferase expressing Raji cells and monitored for lymphoma engraftment and progression using bioluminescence imaging. Tumor engrafted mice were randomly assigned to the treatment groups (n=5).
The MMAE dose was selected based on the fact that the known maximum tolerated dose (MTD) of free MMAE is 0.25-0.5 mg kg^−1 after a single administration. A dose of 0.125 mg/kg was chosen to allow for multiple treatments. Mice injected intravenously with Raji cells develop hind leg paralysis (due to the infiltration of neoplastic cells into the spinal canal) and/or lose weight prior to death. Therefore, hind leg paralysis or >15% loss in body weight were considered experimental endpoints at which mice were euthanized.

[3] = system: normal donor B cells; conditions: normal B cells from healthy human donor, 72 hours
Protocol: (§1) Cell viability and proliferation in cell lines were estimated using a resazurin based assay (Prestoblue, Thermo Scientific). Cell viability in healthy B cells was measured using 7-AAD (Cayman Chemical Company, Ann Harbor, Mich.) cell exclusion using flow cytometric analysis gated on the B cell fraction (CD19-PE, BD Biosciences, Franklin Lakes, N.J.).

[4] = system: Daudi cells; conditions: read-out: IC50 (cytotoxicity), 72 hours
Protocol: as §1

[5] = system: Raji cells; conditions: read-out: IC50 (cytotoxicity), 72 hours
Protocol: as §1

Structure (SMILES) | maximum tolerated dose (MTD) [1] [mg/kg] | histological analysis of kidney sections, lymphoma cell infiltration ([2]; H&E, PVX and MMAE mice when moribund, PVX-vcMMAE mice at end of study period) | lymphoma progression by bioluminescence imaging ([2]; first study: 6 i.p. injections every 4 days from day 3) | median survival ([2]; first study: 6 i.p. injections every 4 days from day 3, MMAE 0.125 mg/kg, PVX-vcMMAE 0.4 mg/kg, PVX 1 mg, PBS 45 days) [days] | median survival ([2]; second study: 3 i.p. injections every 4 days from day 11, PBS 42 days) [days] | cytotoxicity towards non-dividing normal donor B cells [3] | pIC50 [4] | pIC50 [5]
CC[C@H](C)[C@@H]([C@@H](CC(=O)N1CCC[C@H]1[C@H](OC)[C@@H](C)C(=O)N[C@H](C)[C@@H](O)c1ccccc1)OC)N(C)C(=O)[C@@H](NC(=O)[C@@H](NC)C(C)C)C(C)C [MMAE, (S)-N-((3R,4S,5S)-1-((S)-2-((1R,2R)-3-(((1S,2R)-1-hydroxy-1-phenylpropan-2-yl)amino)-1-methoxy-2-methyl-3-oxopropyl)pyrrolidin-1-yl)-3-methoxy-5-methyl-1-oxoheptan-4-yl)-N,3-dimethyl-2-((S)-3-methyl-2-(methylamino)butanamido)butanamide] (H-[NMeV]V[Dil][Dolaproine]-X1) | 0.25 to 0.5 | reduced lymphoma cell infiltration | partially limited lymphoma progression | 61 | 39 |  |  | 
CC[C@H](C)[C@@H]([C@@H](CC(=O)N1CCC[C@H]1[C@H](OC)[C@@H](C)C(=O)N[C@H](C)[C@@H](O)c1ccccc1)OC)N(C)C(=O)[C@@H](NC(=O)[C@H](C(C)C)N(C)C(=O)OCc1ccc(NC(=O)[C@H](CCCNC(N)=O)NC(=O)[C@@H](NC(=O)CCCCCN2C(=O)C=CC2=O)C(C)C)cc1)C(C)C [vcMMAE] ({Hexanoyl(6-maleimido)}-V[Cit][PABC][NMeV]V[Dil][Dolaproine]-X1) |  |  |  |  |  | no cytotoxicity | 7.10 | 6.80
